In patent US20240327506A1, “METHODS AND COMPOSITION FOR THE SELECTIVE ENHANCEMENT OF ADOPTIVE CELL THERAPY” (MaineHealth, priority 2023, published 2024):

Tests used:
[1] = test system: primary murine CD8+ T-cells; assay: CD8+ T-cell polarization on denatured collagen type-IV (F-actin staining); assay type: cell-based; settings: denatured collagen type-IV coated slides, 1 hour, compared to CP
Excerpt: FIGS. 3A-3C. The RGDKGE (SEQ ID NO: 1)-containing collagen peptide P2 inhibits CD8+ T-cell polarization on denatured collagen type-IV. Briefly, microscopy slides were coated with denatured collagen type-IV to mimic the altered subendothelial basement membranes of tumor associated blood vessels. Murine primary CD8+ T-cells were isolated from mice bearing B16F10 melanomas and stimulated with either non-specific control peptide CP or the RGDKGE (SEQ ID NO: 1)-containing collagen peptide P2 and seeded on the coated slides. T-cells were allowed to incubate for 1 hour. Next slides were washed, fixed and stained with Rhodamine-labeled Phalloidin to mark F-actin. Cells were analyzed for morphological evidence of cell shape changes and polarized F-actin. FIG. 3A. Example of an enlarged image of CD8+ T-cell morphology following stimulation with either non-specific control peptide CP or the RGDKGE (SEQ ID NO: 1)-containing collagen peptide P2. FIG. 3B. Example of CD8+ T-cell morphology following stimulation with either non-specific control peptide CP or the RGDKGE (SEQ ID NO: 1)-containing collagen peptide P2. […] FIG. 3C. Quantification of the mean percentage of polarized CD8+ T-cells per 400× microscopic field. Data bars indicate mean percentage of polarized cells per 400× microscopic field from two independent experiments with 10 to 11 fields per treatment. *P<0.05. […]

Jurkat T-cells = assay: Transwell migration of Jurkat T-cells through collagen type-IV; assay type: cell-based, human; settings: peptide, SDF-1 in lower chamber
Protocol: FIGS. 4A-4H. […] Briefly, membranes from transwell migration chambers were coated with either native collagen type-IV or denatured collagen type-IV. T-cell variants were incubated with non-specific control peptide CP, or the RGDKGE (SEQ ID NO: 1)-containing collagen peptide (P2) and seed on the coated transwell membranes. T-cells were allowed to migrate in the presence or absence of SDF-1 added to the lower chamber for approximately 1.5 hours. Cell migration was quantified by counting the number of crystal violet stained cells that had migrated through to the underside of the coated membrane. FIG. 4A. Jurkat T-cell migration through denatured collagen type-IV in the presence of non-specific control peptide CP or RGDKGE (SEQ ID NO: 1)-containing collagen peptide P2 with SDF-1. FIG. 4B. Jurkat T-cell migration through native collagen type-IV in the presence of non-specific control peptide CP or RGDKGE (SEQ ID NO: 1)-containing collagen peptide P2 with SDF-1. FIG. 4C. Cem/C1 T-cell migration through denatured collagen type-IV in the presence of non-specific control peptide CP or RGDKGE (SEQ ID NO: 1)-containing collagen peptide P2 with SDF-1. FIG. 4D. […]
FIGS. 5A-5F. […] Cell migration was quantified by counting the number of crystal violet stained cells that had migrated through to the underside of the coated membrane. […]

Sequence: QGPRGDKGE (CQGPRGDKGEC; Synthetic: Synthetic collagen RGD containing peptide P-2) [Peptide P2, synthetic version of the soluble RGDKGE-containing collagen peptide]
- percentage of T-cells exhibiting a migratory and polarized morphological phenotype [1]: significant decrease
- Jurkat T-cell migration (Jurkat T-cells; denatured collagen type-IV): selectively inhibited
- Jurkat T-cell migration (Jurkat T-cells; native collagen type-IV): neither the soluble RGDKGE (SEQ ID NO: 1) collagen peptide P2, nor the non-specific control peptide had any significant effect
